# Entries after “also recorded” stand apart in the source; their conditions may differ. Read-outs that look alike come from different tables or passages of the source. Square brackets hold non-standard residues; d marks the D form. Peptide text beside a SMILES is read from it. hArg = N=C(N)NCCCC[C@H](N)C(=O)O; Dab = NCC[C@H](N)C(=O)O
# Assays:
# E. coli [1] = test: Antimicrobial resistance, recurrent incubation; assay type: cell-based; conditions: Escherichia coli
# Procedure: To test whether recurrent incubation of bacteria with peptides could induce resistance, E. coli (10^7 cfu/mL) were incubated with peptides (1 μM) or ciprofloxacin (1 μg/mL) for 1 h. After incubation, cells were centrifuged, washed, and grown overnight in Mueller-Hinton medium. The cycle of incubation and growth was repeated in a cyclic manner for 7 days, and each day, cultures were tested for MIC to detect resistance.
# A. baumannii = assay type: cell-based, Acinetobacter baumannii; conditions: 24 h
# Procedure: (§1) Human serum was purchased from Sigma (St Louis, USA).
# (§2) Incubations were kept at 37 °C for 24 h. Results are the average of three independent studies.
# Salmonella enterica = assay type: cell-based; conditions: 24 h
# Procedure: as §2
# Escherichia coli = assay type: cell-based; conditions: 24 h
# Procedure: as §2
# Acinetobacter baumannii = assay type: cell-based; conditions: 24 h
# Procedure: as §2
# Pseudomonas sp. [2] = test: MIC, broth microdilution; assay type: cell-based; conditions: Pseudomonas sp. ATCC 15915; Mueller-Hinton medium, 5 × 10^5 CFU/mL, 37 °C, 24 h; average of three independent studies
# Procedure: as §1, §2
# Pseudomonas sp. [3] = test: Minimum bactericidal concentration (MBC); assay type: cell-based; conditions: 50 μL from MIC wells seeded into Petri plates, 24 h; lowest concentration without detectable growth
# Procedure: as §2
# E. coli [4] = assay type: cell-based, Escherichia coli; conditions: 24 h
# Procedure: as §1, §2
# Pseudomonas sp. [5] = test: MIC of peptides incubated with human serum; assay type: cell-based; conditions: peptide incubated with human serum 1:1; 10^6 cfu/mL Pseudomonas sp., 4 h
# Procedure: as §2
# S. enterica = assay type: cell-based, Salmonella enterica; conditions: 24 h
# Procedure: as §1, §2
# S. flexneri = conditions: 24 h
# Text: Purified horse red blood cells were acquired from Thermo Fisher Scientific (Hampshire, England). Human serum was purchased from Sigma (St Louis, USA). E. coli was obtained from the Coli Genetic Stock Center (BW25113). S. flexneri (ATCC 29903), A. baumannii (ATCC 15308), Pseudomonas sp. (ATCC 15915), and S. enterica (ATCC 14028) were obtained from the CECT (Valencia, Spain). Clinical strains were supplied by the Vall d’Hebron Hospital (Barcelona, Spain). MRC5 fibroblasts were obtained from the Cytometry and Cell Culture Facility (SCAC, UAB) and originally purchased from ATCC.
# The antibiotic activity was defined by the minimum peptide concentration where the microorganism is unable to grow. The assay was done in polypropylene 96-well plates (Greiner, Frickenhausen, Germany) to avoid peptide binding to plate wells. Peptides were dissolved in water containing 0.4% w/v bovine serum albumin (BSA) and 0.02% v/v glacial acetic acid to prevent self-aggregation, following the reference protocol by Wiegand et al.,[42] based on the classical microtiter broth dilution recommended by the […]. Initial bacteria inoculum was adjusted to 5 × 10^5 CFU/mL in Mueller-Hinton (MH) medium. Incubations were kept at 37 °C for 24 h. Results are the average of three independent studies. MIC assays in the presence of serum were performed by incubating the peptide with human serum at a 1:1 ratio. Then, 10^6 cfu/mL of Pseudomonas sp. were incubated with serial dilutions of the peptides for 4 h. To determine the MBC, 50 μL from all wells were seeded into Petri plates and incubated for 24 h. The MBC concentration was attributed to the lowest concentration without detectable bacterial growth for each peptide.
# horse red blood cells = test: Hemolytic activity; assay type: cell-based
# Procedure: The peptide toxicity was determined detecting the disruption of horse red blood cells, following a previous assay report.[35] 10-fold diluted cells in PBS were centrifuged three times at 800g to eliminate the hemoglobin from disrupted cells. After the last resuspension, erythrocytes were incubated with the peptides for 4 h at 37 °C. The detection was done measuring the supernatant absorbance in a VICTOR3 multilabel plate reader (Perkin Elmer, Waltham, Massachusetts) at 540 nm in a microplate reader. Percentage of hemolysis was calculated through a pattern done with dilutions of total cell lysis done with a 1% Triton X-100 buffer. Results are the average of three independent studies.
# Shigella flexneri = conditions: 50 μL from MIC wells seeded into Petri plates, 24 h; lowest concentration without detectable growth
# Procedure: The antibiotic activity was defined by the minimum peptide concentration where the microorganism is unable to grow. The assay was done in polypropylene 96-well plates (Greiner, Frickenhausen, Germany) to avoid peptide binding to plate wells. Peptides were dissolved in water containing 0.4% w/v bovine serum albumin (BSA) and 0.02% v/v glacial acetic acid to prevent self-aggregation, following the reference protocol by Wiegand et al.,[42] based on the classical microtiter broth dilution recommended by the National Committee of Laboratory Safety and Standards (NCLSS). Initial bacteria inoculum was adjusted to 5 × 10^5 CFU/mL in Mueller-Hinton (MH) medium. Incubations were kept at 37 °C for 24 h. Results are the average of three independent studies. […] To determine the MBC, 50 μL from all wells were seeded into Petri plates and incubated for 24 h. The MBC concentration was attributed to the lowest concentration without detectable bacterial growth for each peptide.
# [6] = Cytotoxicity in mammalian cells (MTT assay); assay type: cell-based; conditions: MRC-5 cytotoxicity (IC50)
# Procedure: MRC-5 cells were grown in Eagle’s minimum essential medium (MEMα), supplemented with 10% fetal bovine serum (FBS). 96-well plates were seeded with 3 × 10^4 cells/well and cultured overnight in order to get cells adhered into the plate and then incubated with two-fold peptide serial dilutions. After 4 h of incubation, the medium containing the peptides was replaced by MEMα supplemented with FBS and 3-(4,5-dimethylthiazol-2-yl)-2,5-diphenyltetrazolium bromide (MTT) at 0.4 mg/mL and incubated for 150 min. Detection of formazan crystals in the living cells was done by cell disruption by addition of 200 μL of dimethyl sulfoxide (DMSO) followed by absorbance measuring at 600 nm in a Tecan Infinite F Nano+ microplate reader (Tecan, Germany). Results are the average of three independent studies.
# 50% (v/v) Human Serum = conditions: up to 480 min
cleaved bond (50% (v/v) Human Serum),Compound,"MIC (E. coli [1]; after four cycles of incubation with ciprofloxacin (1 μM; 1 μg/mL elsewhere in the source), 1 h per cycle, 10^7 cfu/mL, read-out: MIC against E. coli after four cycles of incubation) [µM]","MIC (E. coli [1]; start of recurrent incubation, read-out: MIC against E. coli before resistance cycles) [µM]",MIC A. baumannii (A. baumannii) [µM],MBC Salmonella enterica (Salmonella enterica) [µM],MBC Escherichia coli (Escherichia coli) [µM],MBC Acinetobacter baumannii (Acinetobacter baumannii) [µM],MIC Pseudomonas sp. (Pseudomonas sp. [2]) [µM],MBC Pseudomonas sp. (Pseudomonas sp. [3]) [µM],MIC E. coli (E. coli [4]) [µM],"MIC in Pseudomonas sp., peptides incubated with human serum (Pseudomonas sp. [5]) [µM]",MIC S. enterica (S. enterica) [µM],MIC S. flexneri (S. flexneri) [µM],hemolysis % (250 μM peptide) (horse red blood cells) [%],"hemolysis % (250 μM peptide) (horse red blood cells; red cells of horse, 4 h, 250) [%]",MBC Shigella flexneri (Shigella flexneri) [µM],IC50 [6] [µM],fragment found (50% (v/v) Human Serum)
–,O=C(O)c1cn(C2CC2)c2cc(N3CCNCC3)c(F)cc2c1=O [ciprofloxacin],5,1.5,–,–,–,–,–,–,–,–,–,–,–,–,–,–,–
–,CC[C@H](C)[C@H](NC(=O)[C@H](C)NC(=O)[C@H](CCN)NC(=O)[C@H](CCSC)NC(=O)[C@H](C)NC(=O)[C@@H](NC(=O)[C@@H](NC(=O)[C@H](CCN)NC(=O)[C@@H]1CCCN1C(=O)[C@H](CO)NC(=O)[C@@H](NC(=O)[C@H](Cc1c[nH]cn1)NC(=O)[C@H](CCC(N)=O)NC(=O)[C@@H](NC(=O)[C@H](C)NC(=O)[C@H](Cc1ccccc1)NC(=O)[C@H](Cc1c[nH]c2ccccc12)NC(=O)[C@H](CCC(N)=O)NC(=O)[C@H](C)NC(=O)[C@H](CCN)NC(=O)[C@@H](NC(=O)[C@H](Cc1ccccc1)NC(=O)[C@@H]1CCCN1C(=O)[C@@H](N)CCN)[C@@H](C)O)[C@@H](C)CC)[C@@H](C)CC)[C@@H](C)O)[C@@H](C)CC)C(=O)N[C@@H](CC(N)=O)C(=O)N[C@@H](CC(N)=O)C(=O)N[C@@H](Cc1ccc(O)cc1)C(=O)N[C@@H](CCN)C(=O)N[C@@H](Cc1c[nH]c2ccccc12)C(=O)N[C@@H](CCN)C(N)=O [compound 3] (H-[Dab]PFT[Dab]AQWFAIQHISP[Dab]TIAM[Dab]AINNY[Dab]W[Dab]-NH2),–,–,50,50,6.25,50,3.13,3.13,6.25,12.5,50,6.25,10,14 ± 6,6.25,182 ± 9,–
–,CC[C@H](C)[C@H](NC(=O)[C@H](C)NC(=O)[C@H](CCCCNC(=N)N)NC(=O)[C@H](CCSC)NC(=O)[C@H](C)NC(=O)[C@@H](NC(=O)[C@@H](NC(=O)[C@H](CCCCNC(=N)N)NC(=O)[C@@H]1CCCN1C(=O)[C@H](CO)NC(=O)[C@@H](NC(=O)[C@H](Cc1c[nH]cn1)NC(=O)[C@H](CCC(N)=O)NC(=O)[C@@H](NC(=O)[C@H](C)NC(=O)[C@H](Cc1ccccc1)NC(=O)[C@H](Cc1c[nH]c2ccccc12)NC(=O)[C@H](CCC(N)=O)NC(=O)[C@H](C)NC(=O)[C@H](CCCCNC(=N)N)NC(=O)[C@@H](NC(=O)[C@H](Cc1ccccc1)NC(=O)[C@@H]1CCCN1C(=O)[C@@H](N)CCCCNC(=N)N)[C@@H](C)O)[C@@H](C)CC)[C@@H](C)CC)[C@@H](C)O)[C@@H](C)CC)C(=O)N[C@@H](CC(N)=O)C(=O)N[C@@H](CC(N)=O)C(=O)N[C@@H](Cc1ccc(O)cc1)C(=O)N[C@@H](CCCCNC(=N)N)C(=O)N[C@@H](Cc1c[nH]c2ccccc12)C(=O)N[C@@H](CCCCNC(=N)N)C(N)=O [compound 4] (H-[hArg]PFT[hArg]AQWFAIQHISP[hArg]TIAM[hArg]AINNY[hArg]W[hArg]-NH2),–,–,12.5,25,6.25,12.5,3.13,3.13,6.25,6.25,25,3.13,–,43 ± 1,3.13,7.6 ± 0.7,–
Pro2-Phe3,OPFTOAQWFAIQHISPOTIAMOAINNYOWO,–,–,–,–,–,–,–,–,–,–,–,–,–,–,–,–,OPFTOAQWFAIQHISPO-------------; also recorded: -----------------TIAMOAINNYOWO; also recorded: OPFTOAQWFAIQHIS---------------; also recorded: ------QWFAIQHISPOTIAMOAINNY---
Pro2-Phe3,RPFTRAQWFAIQHISPRTIAMRAINNYRWR,–,–,–,–,–,–,–,–,–,–,–,–,–,–,–,–,–
